Test results as given in PubChem BioAssay (NCI).
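The concentration for 50% growth inhibition is given as GI50. TGI marks complete inhibition of growth.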

Assays:
Experiment in all cases: inhibition of tumour cell growth, NCI panel, 384-well format
HS 578T breast = tested on: HS 578T breast
MDA-MB-435 melanoma = tested on: MDA-MB-435 melanoma
UACC-257 melanoma = tested on: UACC-257 melanoma
SNB-75 CNS = tested on: SNB-75 CNS
HOP-92 NSCLC = tested on: HOP-92 NSCLC
MDA-MB-468 breast = tested on: MDA-MB-468 breast
NCI-H226 lung = tested on: NCI-H226 lung
U251 glioblastoma = tested on: U251 glioblastoma
HT29 colon = tested on: HT29 colon
MCF7 breast = tested on: MCF7 breast
SK-OV-3 ovarian = tested on: SK-OV-3 ovarian
HCC-2998 colon = tested on: HCC-2998 colon
HCT-116 colon = tested on: HCT-116 colon
HCT-15 colon = tested on: HCT-15 colon
A549 NSCLC = tested on: A549 NSCLC
T-47D breast = tested on: T-47D breast
CAKI-1 renal = tested on: CAKI-1 renal
SN12C renal = tested on: SN12C renal
SF-539 CNS = tested on: SF-539 CNS
OVCAR-4 ovarian = tested on: OVCAR-4 ovarian
COLO 205 colon = tested on: COLO 205 colon
MDA-MB-231 breast = tested on: MDA-MB-231 breast
NCI-H23 lung = tested on: NCI-H23 lung
BT-549 breast = tested on: BT-549 breast
KM12 colon = tested on: KM12 colon
MALME-3M melanoma = tested on: MALME-3M melanoma
K-562 leukemia = tested on: K-562 leukemia
786-0 renal = tested on: 786-0 renal
DU-145 prostate = tested on: DU-145 prostate
HOP-62 NSCLC = tested on: HOP-62 NSCLC
NCI-H322M lung = tested on: NCI-H322M lung
TK-10 renal = tested on: TK-10 renal
CCRF-CEM leukemia = tested on: CCRF-CEM leukemia
NCI-H522 lung = tested on: NCI-H522 lung
RXF 393 renal = tested on: RXF 393 renal
SF-268 CNS = tested on: SF-268 CNS
PC-3 prostate = tested on: PC-3 prostate
NCI/ADR-RES ovarian = tested on: NCI/ADR-RES ovarian
LOX IMVI melanoma = tested on: LOX IMVI melanoma
SNB-19 CNS = tested on: SNB-19 CNS
HL-60(TB) leukemia = tested on: HL-60(TB) leukemia
ACHN renal = tested on: ACHN renal
M14 melanoma = tested on: M14 melanoma
SK-MEL-5 melanoma = tested on: SK-MEL-5 melanoma
SW-620 colon = tested on: SW-620 colon
SF-295 CNS = tested on: SF-295 CNS
A498 renal = tested on: A498 renal
EKVX NSCLC = tested on: EKVX NSCLC
UACC-62 melanoma = tested on: UACC-62 melanoma
MOLT-4 leukemia = tested on: MOLT-4 leukemia
OVCAR-5 ovarian = tested on: OVCAR-5 ovarian
OVCAR-8 ovarian = tested on: OVCAR-8 ovarian
SK-MEL-28 melanoma = tested on: SK-MEL-28 melanoma
OVCAR-3 ovarian = tested on: OVCAR-3 ovarian
RPMI-8226 leukemia = tested on: RPMI-8226 leukemia
IGROV1 ovarian = tested on: IGROV1 ovarian
NCI-H460 NSCLC = tested on: NCI-H460 NSCLC

**Q.** For `CNC(=O)c1cc(Oc2ccc(NC(=O)Nc3cc(C(C)(C)C)nn3-c3ccc4ncccc4c3)c(F)c2)ccn1`, which GI50 (HS 578T breast) is on record?
**A.** 547 nM

**Q.** What about the TGI (HS 578T breast) of the same compound?
**A.** 1640 nM

**Q.** What about the GI50 (MDA-MB-435 melanoma) of the same compound?
**A.** 477 nM

**Q.** And the TGI (MDA-MB-435 melanoma)?
**A.** 1700 nM

**Q.** What about the GI50 (UACC-257 melanoma) of the same compound?
**A.** 358 nM

**Q.** What about the TGI (UACC-257 melanoma) of the same compound?
**A.** 1710 nM

**Q.** What about the GI50 (SNB-75 CNS) of the same compound?
**A.** 1070 nM

**Q.** What about the TGI (SNB-75 CNS) of the same compound?
**A.** 2280 nM

**Q.** What about the GI50 (HOP-92 NSCLC) of the same compound?
**A.** 605 nM

**Q.** What about the TGI (HOP-92 NSCLC) of the same compound?
**A.** > 100000 nM

**Q.** And the GI50 (MDA-MB-468 breast)?
**A.** 2820 nM

**Q.** And the TGI (MDA-MB-468 breast)?
**A.** 4370 nM

**Q.** And the GI50 (NCI-H226 lung)?
**A.** 109 nM

**Q.** And the TGI (NCI-H226 lung)?
**A.** > 100000 nM

**Q.** What about the GI50 (U251 glioblastoma) of the same compound?
**A.** 1930 nM

**Q.** What about the TGI (U251 glioblastoma) of the same compound?
**A.** 4950 nM

**Q.** And the GI50 (HT29 colon)?
**A.** 520 nM

**Q.** What about the TGI (HT29 colon) of the same compound?
**A.** > 100000 nM

**Q.** And the GI50 (MCF7 breast)?
**A.** 1590 nM

**Q.** What about the TGI (MCF7 breast) of the same compound?
**A.** > 100000 nM

**Q.** And the GI50 (SK-OV-3 ovarian)?
**A.** 1050 nM

**Q.** What about the TGI (SK-OV-3 ovarian) of the same compound?
**A.** > 100000 nM

**Q.** And the GI50 (HCC-2998 colon)?
**A.** 2140 nM

**Q.** What about the TGI (HCC-2998 colon) of the same compound?
**A.** 4730 nM

**Q.** What about the GI50 (HCT-116 colon) of the same compound?
**A.** 937 nM

**Q.** What about the TGI (HCT-116 colon) of the same compound?
**A.** > 100000 nM

**Q.** And the GI50 (HCT-15 colon)?
**A.** 2340 nM

**Q.** What about the TGI (HCT-15 colon) of the same compound?
**A.** 6880 nM

**Q.** What about the GI50 (A549 NSCLC) of the same compound?
**A.** 1180 nM

**Q.** What about the TGI (A549 NSCLC) of the same compound?
**A.** 23200 nM

**Q.** And the GI50 (T-47D breast)?
**A.** 853 nM

**Q.** What about the TGI (T-47D breast) of the same compound?
**A.** 4820 nM

**Q.** What about the GI50 (CAKI-1 renal) of the same compound?
**A.** 359 nM

**Q.** And the TGI (CAKI-1 renal)?
**A.** > 100000 nM

**Q.** What about the GI50 (SN12C renal) of the same compound?
**A.** 679 nM

**Q.** What about the TGI (SN12C renal) of the same compound?
**A.** 4180 nM

**Q.** What about the GI50 (SF-539 CNS) of the same compound?
**A.** 1400 nM

**Q.** And the TGI (SF-539 CNS)?
**A.** 2730 nM

**Q.** What about the GI50 (OVCAR-4 ovarian) of the same compound?
**A.** 2180 nM

**Q.** And the TGI (OVCAR-4 ovarian)?
**A.** 4990 nM

**Q.** And the GI50 (COLO 205 colon)?
**A.** 391 nM

**Q.** And the TGI (COLO 205 colon)?
**A.** 2810 nM

**Q.** And the GI50 (MDA-MB-231 breast)?
**A.** 558 nM

**Q.** What about the TGI (MDA-MB-231 breast) of the same compound?
**A.** > 100000 nM

**Q.** What about the GI50 (NCI-H23 lung) of the same compound?
**A.** 490 nM

**Q.** What about the TGI (NCI-H23 lung) of the same compound?
**A.** 1580 nM

**Q.** And the GI50 (BT-549 breast)?
**A.** 632 nM

**Q.** And the TGI (BT-549 breast)?
**A.** 1880 nM

**Q.** What about the TGI (KM12 colon) of the same compound?
**A.** 6360 nM

**Q.** What about the GI50 (MALME-3M melanoma) of the same compound?
**A.** 34.3 nM

**Q.** And the TGI (MALME-3M melanoma)?
**A.** 308 nM

**Q.** And the TGI (K-562 leukemia)?
**A.** > 100000 nM

**Q.** And the GI50 ([…]-0 renal)?
**A.** 1470 nM

**Q.** And the TGI (786-0 renal)?
**A.** 5190 nM

**Q.** What about the GI50 (DU-145 prostate) of the same compound?
**A.** 2220 nM

**Q.** And the TGI (DU-145 prostate)?
**A.** 8640 nM

**Q.** And the GI50 (HOP-62 NSCLC)?
**A.** 1740 nM

**Q.** And the TGI (HOP-62 NSCLC)?
**A.** 3970 nM

**Q.** And the GI50 (NCI-H322M lung)?
**A.** 2580 nM

**Q.** What about the TGI (NCI-H322M lung) of the same compound?
**A.** 9500 nM

**Q.** What about the GI50 (TK-10 renal) of the same compound?
**A.** 1210 nM

**Q.** And the TGI (TK-10 renal)?
**A.** 4400 nM

**Q.** What about the GI50 (CCRF-CEM leukemia) of the same compound?
**A.** 1370 nM

**Q.** What about the TGI (CCRF-CEM leukemia) of the same compound?
**A.** 2760 nM

**Q.** And the GI50 (NCI-H522 lung)?
**A.** 1450 nM

**Q.** What about the TGI (NCI-H522 lung) of the same compound?
**A.** 3010 nM

**Q.** What about the GI50 (RXF 393 renal) of the same compound?
**A.** 499 nM

**Q.** And the TGI (RXF 393 renal)?
**A.** 1570 nM

**Q.** What about the GI50 (SF-268 CNS) of the same compound?
**A.** 192 nM

**Q.** What about the TGI (SF-268 CNS) of the same compound?
**A.** 752 nM

**Q.** And the GI50 (PC-3 prostate)?
**A.** 3160 nM

**Q.** And the TGI (PC-3 prostate)?
**A.** 9470 nM

**Q.** And the GI50 (NCI/ADR-RES ovarian)?
**A.** 2530 nM

**Q.** And the TGI (NCI/ADR-RES ovarian)?
**A.** 6340 nM

**Q.** What about the GI50 (LOX IMVI melanoma) of the same compound?
**A.** 281 nM

**Q.** And the TGI (LOX IMVI melanoma)?
**A.** 961 nM

**Q.** What about the GI50 (SNB-19 CNS) of the same compound?
**A.** 3690 nM

**Q.** What about the TGI (SNB-19 CNS) of the same compound?
**A.** > 100000 nM

**Q.** What about the GI50 (HL-60(TB) leukemia) of the same compound?
**A.** 724 nM

**Q.** And the TGI (HL-60(TB) leukemia)?
**A.** 1530 nM

**Q.** And the GI50 (ACHN renal)?
**A.** 446 nM

**Q.** And the TGI (ACHN renal)?
**A.** 4260 nM

**Q.** What about the GI50 (M14 melanoma) of the same compound?
**A.** 97.7 nM

**Q.** And the TGI (M14 melanoma)?
**A.** 1020 nM

**Q.** And the GI50 (SK-MEL-5 melanoma)?
**A.** 552 nM

**Q.** And the TGI (SK-MEL-5 melanoma)?
**A.** 1830 nM

**Q.** What about the GI50 (SW-620 colon) of the same compound?
**A.** 2740 nM

**Q.** What about the TGI (SW-620 colon) of the same compound?
**A.** 5710 nM

**Q.** And the GI50 (SF-295 CNS)?
**A.** 2210 nM

**Q.** What about the TGI (SF-295 CNS) of the same compound?
**A.** > 100000 nM

**Q.** And the GI50 (A498 renal)?
**A.** 2410 nM

**Q.** What about the TGI (A498 renal) of the same compound?
**A.** 9320 nM

**Q.** What about the GI50 (EKVX NSCLC) of the same compound?
**A.** 1490 nM

**Q.** And the TGI (EKVX NSCLC)?
**A.** 4280 nM

**Q.** What about the GI50 (UACC-62 melanoma) of the same compound?
**A.** 32.8 nM

**Q.** And the TGI (UACC-62 melanoma)?
**A.** 612 nM

**Q.** What about the GI50 (MOLT-4 leukemia) of the same compound?
**A.** 1540 nM

**Q.** And the TGI (MOLT-4 leukemia)?
**A.** 2940 nM

**Q.** What about the GI50 (OVCAR-5 ovarian) of the same compound?
**A.** 884 nM

**Q.** What about the TGI (OVCAR-5 ovarian) of the same compound?
**A.** 58000 nM

**Q.** And the GI50 (OVCAR-8 ovarian)?
**A.** 1740 nM

**Q.** And the TGI (OVCAR-8 ovarian)?
**A.** 4300 nM

**Q.** What about the GI50 (SK-MEL-28 melanoma) of the same compound?
**A.** 310 nM

**Q.** What about the TGI (SK-MEL-28 melanoma) of the same compound?
**A.** 1200 nM

**Q.** What about the GI50 (OVCAR-3 ovarian) of the same compound?
**A.** 2390 nM

**Q.** What about the TGI (OVCAR-3 ovarian) of the same compound?
**A.** 5220 nM

**Q.** What about the GI50 (RPMI-8226 leukemia) of the same compound?
**A.** 1910 nM

**Q.** What about the TGI (RPMI-8226 leukemia) of the same compound?
**A.** 3440 nM

**Q.** What about the GI50 (IGROV1 ovarian) of the same compound?
**A.** 442 nM

**Q.** What about the TGI (IGROV1 ovarian) of the same compound?
**A.** 7530 nM

**Q.** What about the GI50 (NCI-H460 NSCLC) of the same compound?
**A.** 1160 nM

**Q.** What about the TGI (NCI-H460 NSCLC) of the same compound?
**A.** 4380 nM
